The values that follow come from patent US10683287B2, “Heterocyclic derivatives and their use in the treatment of neurological disorders” (Novartis AG, priority 2011, dated 2020).

The test system of this experiment is Cellular Release of Amyloid Peptide 1-40. The experiment is described as follows: Test 4: Inhibition of Cellular Release of Amyloid Peptide 1-40. The format is cell-based, Chinese hamster. The settings on record: Cricetulus griseus, 24 h; read-out: Amyloid-β1-40 release IC50. As to the method:
Chinese hamster ovary cells are transfected with the human gene for amyloid precursor protein. The cells are plated at a density of 8000 cells/well into 96-well microtiter plates and cultivated for 24 hours in DMEM cell culture medium containing 10% FCS. The test compound is added to the cells at various concentrations, and the cells are cultivated for 24 hours in the presence of the test compound.

pIC50: −log10 of the molar value.

Take `Cc1cc(OCF)cnc1C(=O)Nc1ccc(F)c([C@]2(C)CO[C@@](C)(C(F)(F)F)C(N)=N2)n1` [Example 32, 5-Fluoromethoxy-3-methyl-pyridine-2-carboxylic acid [6-((3R,6R)-5-amino-3,6-dimethyl-6-trifluoromethyl-3,6-dihydro-2H-[1,4]oxazin-3-yl)-5-fluoro-pyridin-2-yl]amide]: the pIC50 – broadly, the negative decadic logarithm of the IC50, by convention in mol/L – is 7.59. Consider `Cc1cnc(C(=O)Nc2ccc(F)c([C@]3(C)CO[C@@](C)(C(F)(F)F)C(N)=N3)n2)cn1` [Example 33, 5-Methyl-pyrazine-2-carboxylic acid [6-((3R,6R)-5-amino-3,6-dimethyl-6-trifluoromethyl-3,6-dihydro-2H-[1,4]oxazin-3-yl)-5-fluoro-pyridin-2-yl]amide], for which the negative-log IC50 (pIC50) was 6.89.

For `C[C@@]1(c2cc(NC(=O)c3ncc(C#N)cc3Cl)ncc2F)CO[C@@](C)(C(F)(F)F)C(N)=N1` [Example 35, 3-Chloro-5-cyano-pyridine-2-carboxylic acid [4-((3R,6R)-5-amino-3,6-dimethyl-6-trifluoromethyl-3,6-dihydro-2H-[1,4]oxazin-3-yl)-5-fluoro-pyridin-2-yl]-amide], the pIC50 is 6.85. The result for `Cc1cc(C#N)cnc1C(=O)Nc1cc([C@]2(C)COC(CF)(CF)C(N)=N2)c(F)cn1` [Example 37, 5-Cyano-3-methyl-pyridine-2-carboxylic acid [4-((R)-5-amino-6,6-bis-fluoromethyl-3-methyl-3,6-dihydro-2H-[1,4]oxazin-3-yl)-5-fluoro-pyridin-2-yl]-amide] reads 7.08. Turning to `Cc1cc(C#N)cnc1C(=O)Nc1ccc(F)c([C@]2(C(F)F)COCC(N)=N2)n1` [Example 38, 5-Cyano-3-methyl-pyridine-2-carboxylic acid [6-((R)-5-amino-3-difluoromethyl-3,6-dihydro-2H-[1,4]oxazin-3-yl)-5-fluoro-pyridin-2-yl]-amide], the pIC50 is 8.30.

As to `Cc1cc(C#N)cnc1C(=O)Nc1ccc(F)c([C@@]2(C(F)F)COCC(N)=N2)n1` [Example 39, 5-Cyano-3-methyl-pyridine-2-carboxylic acid [6-((S)-5-amino-3-difluoromethyl-3,6-dihydro-2H-[1,4]oxazin-3-yl)-5-fluoro-pyridin-2-yl]-amide], the pIC50 was 6.54. The result for `N#Cc1cnc(C(=O)Nc2ccc(F)c([C@]3(C(F)F)COCC(N)=N3)n2)c(Cl)c1` [Example 40, 3-Chloro-5-cyano-pyridine-2-carboxylic acid [6-((R)-5-amino-3-difluoromethyl-3,6-dihydro-2H-[1,4]oxazin-3-yl)-5-fluoro-pyridin-2-yl]-amide] reads 7.92. Take `Cc1cnc(C(=O)Nc2ccc(F)c([C@]3(C)CO[C@@](C)(C(F)(F)F)C(N)=N3)n2)c(C)n1` [Example 41, 3,5-Dimethyl-pyrazine-2-carboxylic acid [6-((3R,6R)-5-amino-3,6-dimethyl-6-trifluoromethyl-3,6-dihydro-2H-[1,4]oxazin-3-yl)-5-fluoro-pyridin-2-yl]amide]: the pIC50 was 6.79. As to `C[C@@]1(c2nc(NC(=O)c3ncc(OCCCF)nc3N)ccc2F)CO[C@@](C)(C(F)(F)F)C(N)=N1` [Example 42, 3-Amino-5-(3-fluoro-propoxy)-pyrazine-2-carboxylic acid [6-((3R,6R)-5-amino-3,6-dimethyl-6-trifluoromethyl-3,6-dihydro-2H-[1,4]oxazin-3-yl)-5-fluoro-pyridin-2-yl]amide], the pIC50 is 7.14. For `COCCn1ccc2nc(C(=O)Nc3ccc(F)c([C@]4(C)CO[C@@](C)(C(F)(F)F)C(N)=N4)n3)c(N)nc21` [Example 43, 3-Amino-5-(2-methoxy-ethyl)-5H-pyrrolo[2,3-b]pyrazine-2-carboxylic acid [6-((3R,6R)-5-amino-3,6-dimethyl-6-trifluoromethyl-3,6-dihydro-2H-[1,4]oxazin-3-yl)-5-fluoro-pyridin-2-yl]amide], the pIC50 was 6.43. `C[C@@]1(c2nc(NC(=O)c3nc4ccn(CC(F)F)c4nc3N)ccc2F)CO[C@@](C)(C(F)(F)F)C(N)=N1` [Example 45, 3-Amino-5-(2,2-difluoro-ethyl)-5H-pyrrolo[2,3-b]pyrazine-2-carboxylic acid [6-((3R,6R)-5-amino-3,6-dimethyl-6-trifluoromethyl-3,6-dihydro-2H-[1,4]oxazin-3-yl)-5-fluoro-pyridin-2-yl]-amide]: the pIC50 is 5.44.
